Assay results: patent publication US10472347B2, “Aminopyrazine compounds with A2A antagonist properties” (Merck Sharp & Dohme Corp., priority 2014, dated 2019)
pKi: −log10 of the molar value.

These compounds were tested against T1, human A2a receptor (Homo sapiens, UniProt P29274) (assay: A2a competition binding assay, Scintillation Proximity technology). Details: membranes from HEK293 cells expressing human A2a receptor; Ki by Cheng-Prusoff equation.
T1 construct: purchased Perkin-Elmer RBHA2AM400UA; host or cells: HEK293 cells (membranes)
In short: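 SPA competition: 0.5 nM tritiated pyrazolotriazolopyrimidine ligand displaced by compound at 3000 to 0.15 nM, 1 h room temperature, human A2a HEK293 membranes pretreated with adenosine deaminase, PBS/10 mM MgCl2 buffer. CGS15943 1 μM defined non-specific binding; EC50 converted to Ki via Cheng-Prusoff.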

T1 sequence (P29274 whole entry): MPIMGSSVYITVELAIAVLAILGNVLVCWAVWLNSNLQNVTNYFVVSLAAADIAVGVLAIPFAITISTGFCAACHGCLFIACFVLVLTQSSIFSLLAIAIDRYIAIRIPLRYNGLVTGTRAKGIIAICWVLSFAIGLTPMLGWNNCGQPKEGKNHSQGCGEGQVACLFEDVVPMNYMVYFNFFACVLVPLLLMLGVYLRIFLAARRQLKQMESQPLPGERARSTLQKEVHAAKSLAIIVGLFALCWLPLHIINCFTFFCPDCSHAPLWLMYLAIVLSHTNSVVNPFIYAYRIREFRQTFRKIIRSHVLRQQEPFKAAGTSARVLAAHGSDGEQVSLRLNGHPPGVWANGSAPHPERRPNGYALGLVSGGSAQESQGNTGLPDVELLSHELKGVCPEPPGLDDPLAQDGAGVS

| Structure (SMILES) | pKi |
| --- | --- |
| Cc1cccc(CNC(=O)c2nc(Cl)c(-n3nccn3)nc2N)n1 [Ex-326, 3-amino-6-chloro-N-[(6-methylpyridin-2-yl)methyl]-5-(2H-1,2,3-triazol-2-yl)pyrazine-2-carboxamide] | 8.21 |
| Nc1nc(-n2cncn2)c(Cl)nc1C(=O)NCc1ccccc1C(F)(F)F [Ex-327, 3-amino-6-chloro-5-(1H-1,2,4-triazol-1-yl)-N-[2-(trifluoromethyl)benzyl] pyrazine-2-carboxamide] | 7.25 |
| Nc1nc(-n2cncn2)c(Cl)nc1C(=O)NCc1ccc(F)cc1F [Ex-328, 3-amino-6-chloro-N-(2,4-difluorobenzyl)-5-(1H-1,2,4-triazol-1-yl)pyrazine-2-carboxamide] | 6.20 |
| Nc1nc(-n2cccn2)c(Cl)nc1C(=O)NCc1ccccc1C(F)(F)F [Ex-329, 3-amino-6-chloro-5-(1H-pyrazol-1-yl)-N-[2-(trifluoromethyl)benzyl] pyrazine-2-carboxamide] | 8.07 |
| Nc1nc(-n2cccn2)c(Cl)nc1C(=O)NCc1ccc(F)cc1 [Ex-330, 3-amino-6-chloro-N-(4-fluorobenzyl)-5-(1H-pyrazol-1-yl)pyrazine-2-carboxamide] | 7.21 |
| Nc1nc(-n2cccn2)c(Cl)nc1C(=O)NCc1ccc(F)cc1F [Ex-331, 3-amino-6-chloro-N-(2,4-difluorobenzyl)-5-(1H-pyrazol-1-yl)pyrazine-2-carboxamide] | 7.12 |
| Nc1nc(-n2cccn2)c(Cl)nc1C(=O)NCc1cccc2cccnc12 [Ex-332, 3-amino-6-chloro-5-(1H-pyrazol-1-yl)-N-(quinolin-8-ylmethyl)pyrazine-2-carboxamide] | 8.39 |
| Nc1nc(-n2cccn2)c(Cl)nc1C(=O)N[C@@H]1CCc2ccccc21 [Ex-333, 3-amino-6-chloro-N-[(1R)-2,3-dihydro-1H-inden-1-yl]-5-(1H-pyrazol-1-yl)pyrazine-2-carboxamide] | 7.24 |
| Cc1cccnc1CNC(=O)c1nc(Cl)c(-n2cccn2)nc1N [Ex-334, 3-amino-6-chloro-N-[(3-methylpyridin-2-yl)methyl]-5-(1H-pyrazol-1-yl)pyrazine-2-carboxamide] | 7.86 |
| Cc1cnn(-c2nc(N)c(C(=O)NCc3ccccc3C(F)(F)F)nc2Cl)c1 [Ex-335, 3-amino-6-chloro-5-(4-methyl-1H-pyrazol-1-yl)-N-[2-(trifluoromethyl)benzyl] pyrazine-2-carboxamide] | 6.94 |
| Cc1cnn(-c2nc(N)c(C(=O)N[C@@H]3CCc4ccccc43)nc2Cl)c1 [Ex-336, 3-amino-6-chloro-N-[(1R)-2,3-dihydro-1H-inden-1-yl]-5-(4-methyl-1H-pyrazol-1-yl)pyrazine-2-carboxamide] | 6.87 |
| Cc1cnn(-c2nc(N)c(C(=O)NCc3ncccc3C)nc2Cl)c1 [Ex-337, 3-amino-6-chloro-5-(4-methyl-1H-pyrazol-1-yl)-N-[(3-methylpyridin-2-yl)methyl]pyrazine-2-carboxamide] | 7.95 |
| Cc1ccn(-c2nc(N)c(C(=O)NCc3ccccc3C(F)(F)F)nc2Cl)n1 [Ex-338, 3-amino-6-chloro-5-(3-methyl-1H-pyrazol-1-yl)-N-[2-(trifluoromethyl)benzyl] pyrazine-2-carboxamide] | 6.88 |
| Cc1ccn(-c2nc(N)c(C(=O)N[C@@H]3CCc4ccccc43)nc2Cl)n1 [Ex-339, 3-amino-6-chloro-N-[(1R)-2,3-dihydro-1H-inden-1-yl]-5-(3-methyl-1H-pyrazol-1-yl)pyrazine-2-carboxamide] | 6.93 |
| Cc1cnn(-c2nc(N)c(C(=O)NCc3cccc4cccnc34)nc2Cl)c1 [Ex-340, 3-amino-6-chloro-5-(4-methyl-1H-pyrazol-1-yl)-N-(quinolin-8-ylmethyl)pyrazine-2-carboxamide] | 7.89 |
| Cc1cnn(-c2nc(N)c(C(=O)NCc3ncccc3C)nc2C)c1 [Ex-341, 3-amino-6-methyl-5-(4-methyl-1H-pyrazol-1-yl)-N-[(3-methylpyridin-2-yl)methyl]pyrazine-2-carboxamide] | 6.98 |
| Cc1cnn(-c2nc(N)c(C(=O)NCc3nccc4ccccc34)nc2C)c1 [Ex-342, 3-amino-N-(isoquinolin-1-ylmethyl)-6-methyl-5-(4-methyl-1H-pyrazol-1-yl)pyrazine-2-carboxamide] | 6.91 |
| Cc1cnn(-c2nc(N)c(C(=O)NCc3ncccc3C(F)(F)F)nc2Cl)c1 [Ex-343, 3-amino-6-chloro-5-(4-methyl-1H-pyrazol-1-yl)-N-{[3-(trifluoromethyl)pyridin-2-yl]methyl}pyrazine-2-carboxamide] | 7.44 |
| Cc1cnn(-c2nc(N)c(C(=O)NCc3ccc(F)cc3F)nc2Cl)n1 [Ex-344, 3-amino-6-chloro-N-(2,4-difluorobenzyl)-5-(4-methyl-2H-1,2,3-triazol-2-yl)pyrazine-2-carboxamide] | 7.51 |
| Cc1cnn(-c2nc(N)c(C(=O)NCc3ncccc3C)nc2Cl)n1 [Ex-345, 3-amino-6-chloro-N-[(3-methylpyridin-2-yl)methyl]-5-(4-methyl-2H-1,2,3-triazol-2-yl)pyrazine-2-carboxamide] | 8.22 |

| Structure (SMILES) | pKi |
| --- | --- |
| Cc1cnn(-c2nc(N)c(C(=O)NC3CCNc4ccccc43)nc2Cl)n1 (stereo not drawn) [Ex-346, 3-amino-6-chloro-5-(4-methyl-2H-1,2,3-triazol-2-yl)-N-(1,2,3,4-tetrahydroquinolin-4-yl)pyrazine-2-carboxamide] | 6.40 |
| Cc1nc(C(=O)NCc2cccc3cccnc23)c(N)nc1-n1cccn1 [Ex-347, 3-amino-6-methyl-5-(1H-pyrazol-1-yl)-N-(quinolin-8-ylmethyl)pyrazine-2-carboxamide] | 7.33 |
| Cc1cnn(-c2nc(N)c(C(=O)NCc3cccc4cccnc34)nc2Cl)n1 [Ex-348, 3-amino-6-chloro-5-(4-methyl-2H-1,2,3-triazol-2-yl)-N-(quinolin-8-ylmethyl)pyrazine-2-carboxamide] | 8.00 |
| Cc1cnn(-c2nc(N)c(C(=O)N[C@H](CO)c3ccccc3)nc2Cl)c1 [Ex-349, 3-amino-6-chloro-N-[(1S)-2-hydroxy-1-phenylethyl]-5-(4-methyl-1H-pyrazol-1-yl)pyrazine-2-carboxamide] | 6.75 |
| Cc1cnn(-c2nc(N)c(C(=O)NCc3ccc4[nH]ccc4c3)nc2Cl)c1 [Ex-350, 3-amino-6-chloro-N-(1H-indol-5-ylmethyl)-5-(4-methyl-1H-pyrazol-1-yl)pyrazine-2-carboxamide] | 6.20 |
| Cc1cnn(-c2nc(N)c(C(=O)NCc3nc4ccccc4n3C)nc2Cl)c1 [Ex-351, 3-amino-6-chloro-N-[(1-methyl-1H-benzimidazol-2-yl)methyl]-5-(4-methyl-1H-pyrazol-1-yl)pyrazine-2-carboxamide] | 6.50 |
| Cc1cnn(-c2nc(N)c(C(=O)NCc3cccc4cc[nH]c34)nc2Cl)c1 [Ex-352, 3-amino-6-chloro-N-(1H-indol-7-ylmethyl)-5-(4-methyl-1H-pyrazol-1-yl)pyrazine-2-carboxamide] | 7.29 |
| Cc1cnn(-c2nc(N)c(C(=O)NCc3cccc4[nH]ccc34)nc2Cl)c1 [Ex-353, 3-amino-6-chloro-N-(1H-indol-4-ylmethyl)-5-(4-methyl-1H-pyrazol-1-yl)pyrazine-2-carboxamide] | 7.31 |
| Cc1cnn(-c2nc(N)c(C(=O)NCc3ccc4cc[nH]c4c3)nc2Cl)c1 [Ex-354, 3-amino-6-chloro-N-(1H-indol-6-ylmethyl)-5-(4-methyl-1H-pyrazol-1-yl)pyrazine-2-carboxamide] | 6.41 |
| Cc1cnn(-c2nc(N)c(C(=O)NCc3nc4ccccc4s3)nc2Cl)c1 [Ex-355, 3-amino-N-(1,3-benzothiazol-2-ylmethyl)-6-chloro-5-(4-methyl-1H-pyrazol-1-yl)pyrazine-2-carboxamide] | 6.26 |
| Cc1cnn(-c2nc(N)c(C(=O)NCc3nc4ccccc4o3)nc2Cl)c1 [Ex-356, 3-amino-N-(1,3-benzoxazol-2-ylmethyl)-6-chloro-5-(4-methyl-1H-pyrazol-1-yl)pyrazine-2-carboxamide] | 8.37 |
| Cc1cnn(-c2nc(N)c(C(=O)NCc3cccc4nccnc34)nc2Cl)c1 [Ex-357, 3-amino-6-chloro-5-(4-methyl-1H-pyrazol-1-yl)-N-(quinoxalin-5-ylmethyl)pyrazine-2-carboxamide] | 7.16 |
| Cc1cnn(-c2nc(N)c(C(=O)NCc3ccccc3)nc2Cl)c1 [Ex-358, 3-amino-N-benzyl-6-chloro-5-(4-methyl-1H-pyrazol-1-yl)pyrazine-2-carboxamide] | 7.13 |
| Cc1cnn(-c2nc(N)c(C(=O)NCc3cn4ccsc4n3)nc2Cl)c1 [Ex-359, 3-amino-6-chloro-N-(imidazo[2,1-b][1,3]thiazol-6-ylmethyl)-5-(4-methyl-1H-pyrazol-1-yl)pyrazine-2-carboxamide] | 7.05 |
| Cc1cnn(-c2nc(N)c(C(=O)NCc3cnc4ccccn34)nc2Cl)c1 [Ex-360, 3-amino-6-chloro-N-(imidazo[1,2-a]pyridin-3-ylmethyl)-5-(4-methyl-1H-pyrazol-1-yl)pyrazine-2-carboxamide] | 6.21 |
| Cc1cnn(-c2nc(N)c(C(=O)NCc3cncc4ccccc34)nc2Cl)c1 [Ex-361, 3-amino-6-chloro-N-(isoquinolin-4-ylmethyl)-5-(4-methyl-1H-pyrazol-1-yl)pyrazine-2-carboxamide] | 7.20 |
| Cc1cnn(-c2nc(N)c(C(=O)NCc3cnn4ccccc34)nc2Cl)c1 [Ex-362, 3-amino-6-chloro-5-(4-methyl-1H-pyrazol-1-yl)-N-(pyrazolo[1,5-a]pyridin-3-ylmethyl)pyrazine-2-carboxamide] | 6.84 |
| Cc1cnn(-c2nc(N)c(C(=O)NCc3cccc4c3C(=O)NC4)nc2Cl)c1 [Ex-363, 3-amino-6-chloro-5-(4-methyl-1H-pyrazol-1-yl)-N-[(3-oxo-2,3-dihydro-1H-isoindol-4-yl)methyl]pyrazine-2-carboxamide] | 9.30 |
| Cc1cccnc1CNC(=O)c1nc(C)c(-c2nc(C(F)(F)F)co2)nc1N [Ex-379, 3-amino-6-methyl-N-[(3-methylpyridin-2-yl)methyl]-5-[4-(trifluoromethyl)-1,3-oxazol-2-yl]pyrazine-2-carboxamide] | 5.83 |
